Assay results: the NIST ThermoML archive (doi:10.1016/j.jct.2008.01.007)
Numbers after ± are expanded uncertainties.

Conditions: 101 kPa, Liquid

Compound OCCN1CCOCC1 [4-morpholineethanol] has a mass density (293.15 K) of 1076.58 ± 3.1 kg/m3, a viscosity (293.15 K) of 26.58 ± 1.8 mPa·s and a mass density (303.15 K) of 1066.51 ± 3 kg/m3. The viscosity (303.15 K) was 21.99 ± 1.5 mPa·s, the mass density (313.15 K) was 1059.19 ± 2.8 kg/m3 and the viscosity (313.15 K) was 17.32 ± 1.2 mPa·s. It also gave a mass density (323.15 K) of 1052.64 ± 2.7 kg/m3, a viscosity (323.15 K) of 12.86 ± 0.92 mPa·s and a mass density (333.15 K) of 1046.43 ± 2.6 kg/m3. It also gave a viscosity (333.15 K) of 8.284 ± 0.64 mPa·s.
